Experimental data taken from ChEMBL document CHEMBL4017547, “Influences of Histidine-1 and Azaphenylalanine-4 on the Affinity, Anti-inflammatory, and Antiangiogenic Activities of Azapeptide Cluster of Differentiation 36 Receptor Modulators” (J Med Chem, 2017).
Calls of active or inactive are those of the source. No cut-off for these calls is given here. Starred links: 1 amine or outer side, 2 acyl side, 3 side chain; linkers in the order of their positions; H or OH if unused. Non-standard residues stand in square brackets, D forms with d. Residues, ends and D or L forms follow the SMILES beside them. dTrp(2-Me) = Cc1[nH]c2ccccc2c1C[C@@H](N)C(=O)O; azaTyr = O=C(N(Cc1ccc(O)cc1)N[*:1])[*:2]; azaPhe = O=C(N(Cc1ccccc1)N[*:1])[*:2]

Columns and labels:
[1] = biological target: Platelet glycoprotein 4 (Mus musculus) (UniProt Q08857); test: Modulation of CD36 in mouse […] cells assessed as inhibition of R-FSL1-induced NO over production at 1 uM preincubated for 1 hr followed by overnight R-FSL1 stimulation by DAN-fluorescence assay relative to control; assay type: cell-based
[2] = biological target: Platelet glycoprotein 4 (Mus musculus) (UniProt Q08857); test: Modulation of CD36 in mouse J774A.1 cells assessed as inhibition of R-FSL1-induced NO over production at 1 uM preincubated for 1 hr followed by overnight R-FSL1 stimulation by DAN-fluorescence assay relative to control; assay type: cell-based
[3] = biological target: Platelet glycoprotein 4 (Rattus norvegicus) (UniProt Q07969); test: Inhibition of photoactivatable [125I]-Tyr-Bpa-Ala-hexarelin binding to CD36 in Sprague-Dawley rat heart membranes after 60 mins by SDS-PAGE analysis relative to H-His-D-Trp-Ala-aza(3-hydroxy)Phe-D-Phe-Lys-NH2; assay type: cell membranes; details: Membrane
Mus musculus = organism: Mus musculus; test: Anti-angiogenic activity in mouse sclera/choroid/retinal pigment epithelium complex assessed as reduction in microvascular sprouting at 1 uM after 24 hrs by microscopic analysis; assay type: functional
Platelet glycoprotein 4 = Platelet glycoprotein 4 (Rattus norvegicus, UniProt Q07969); test: Inhibition of photoactivatable [125I]-Tyr-Bpa-Ala-hexarelin binding to CD36 in Sprague-Dawley rat heart membranes after 60 mins by SDS-PAGE analysis; assay type: cell membranes, Membrane
[4] = Pro-angiogenic activity in mouse sclera/choroid/retinal pigment epithelium complex assessed as increase in microvascular sprouting at 1 uM after 24 hrs by microscopic analysis; assay type: ADME

Platelet glycoprotein 4, sequence (Q07969 whole entry): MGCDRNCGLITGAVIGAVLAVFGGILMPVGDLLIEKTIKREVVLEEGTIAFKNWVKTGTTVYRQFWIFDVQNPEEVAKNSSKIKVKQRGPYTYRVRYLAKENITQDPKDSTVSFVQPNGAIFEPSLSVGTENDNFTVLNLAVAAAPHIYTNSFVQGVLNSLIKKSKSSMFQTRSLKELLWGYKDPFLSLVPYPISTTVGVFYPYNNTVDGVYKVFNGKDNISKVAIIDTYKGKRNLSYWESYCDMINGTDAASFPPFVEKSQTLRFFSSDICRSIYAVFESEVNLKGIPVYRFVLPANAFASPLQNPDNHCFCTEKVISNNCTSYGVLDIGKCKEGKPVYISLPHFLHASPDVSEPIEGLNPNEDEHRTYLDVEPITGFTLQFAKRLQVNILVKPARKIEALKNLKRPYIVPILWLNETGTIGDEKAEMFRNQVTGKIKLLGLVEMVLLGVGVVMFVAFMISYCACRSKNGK
Platelet glycoprotein 4 (Rattus norvegicus), sequence (Q07969 whole entry): as above
Platelet glycoprotein 4 (Mus musculus), sequence (Q08857 whole entry): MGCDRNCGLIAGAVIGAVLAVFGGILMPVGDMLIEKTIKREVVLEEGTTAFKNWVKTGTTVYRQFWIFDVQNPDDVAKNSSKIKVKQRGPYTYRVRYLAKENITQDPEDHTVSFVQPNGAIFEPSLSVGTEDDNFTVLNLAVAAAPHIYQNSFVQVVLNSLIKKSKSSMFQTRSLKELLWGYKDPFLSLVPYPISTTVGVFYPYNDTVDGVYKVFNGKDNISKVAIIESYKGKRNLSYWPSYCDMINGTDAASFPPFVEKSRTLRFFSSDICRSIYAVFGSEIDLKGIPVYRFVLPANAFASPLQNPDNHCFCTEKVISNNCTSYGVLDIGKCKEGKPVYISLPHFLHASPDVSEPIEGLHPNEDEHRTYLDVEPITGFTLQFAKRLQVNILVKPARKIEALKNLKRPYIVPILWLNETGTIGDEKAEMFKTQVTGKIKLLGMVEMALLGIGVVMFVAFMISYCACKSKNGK

Structure (SMILES)	inhibition [1]	inhibition [2]	fold change (FC) [3]	IC50 (Platelet glycoprotein 4)	Activity (Mus musculus)	Activity [4]
Cc1[nH]c2ccccc2c1C[C@@H](NC(=O)[C@@H](N)Cc1c[nH]cn1)C(=O)N[C@@H](C)C(=O)N[C@@H](Cc1c[nH]c2ccccc12)C(=O)N[C@H](Cc1ccccc1)C(=O)N[C@@H](CCCCN)C(N)=O (H-H[dTrp(2-Me)]AW[dF]K-NH2)			18.1			
C[C@H](NC(=O)[C@@H](Cc1c[nH]c2ccccc12)NC(=O)[C@@H](N)Cc1cnc[nH]1)C(=O)NN(CCCCCN)C(=O)N[C@H](Cc1ccccc1)C(=O)N[C@@H](CCCCN)C(N)=O	inactive	inactive				
CCCOc1ccc(CN(NC(=O)[C@H](C)NC(=O)[C@@H](Cc2c[nH]c3ccccc23)NC(=O)[C@@H](N)Cc2cnc[nH]2)C(=O)N[C@H](Cc2ccccc2)C(=O)N[C@@H](CCCCN)C(N)=O)cc1	Active	Active	17.1	1.65 µM		Toxic
CC(C)Oc1ccc(CN(NC(=O)[C@H](C)NC(=O)[C@@H](Cc2c[nH]c3ccccc23)NC(=O)[C@@H](N)Cc2cnc[nH]2)C(=O)N[C@H](Cc2ccccc2)C(=O)N[C@@H](CCCCN)C(N)=O)cc1	inactive	inactive				
C[C@H](NC(=O)[C@@H](Cc1c[nH]c2ccccc12)NC(=O)[C@@H](N)Cc1cnc[nH]1)C(=O)NN(Cc1cccc(O)c1)C(=O)N[C@H](Cc1ccccc1)C(=O)N[C@@H](CCCCN)C(N)=O	inactive	inactive		28.2 µM	inactive	
Cc1cc(F)cc(C)c1CN(NC(=O)[C@H](C)NC(=O)[C@@H](Cc1c[nH]c2ccccc12)NC(=O)[C@@H](N)Cc1cnc[nH]1)C(=O)N[C@H](Cc1ccccc1)C(=O)N[C@@H](CCCCN)C(N)=O	Active	Active	5	5.58 µM	inactive	
COc1cc(Cl)c(CN(NC(=O)[C@H](C)NC(=O)[C@@H](Cc2c[nH]c3ccccc23)NC(=O)[C@@H](N)Cc2cnc[nH]2)C(=O)N[C@H](Cc2ccccc2)C(=O)N[C@@H](CCCCN)C(N)=O)c(Cl)c1	inactive	inactive				
Cc1cccc(C)c1CN(NC(=O)[C@H](C)NC(=O)[C@@H](Cc1c[nH]c2ccccc12)NC(=O)[C@@H](N)Cc1cnc[nH]1)C(=O)N[C@H](Cc1ccccc1)C(=O)N[C@@H](CCCCN)C(N)=O	Active	Active	5.1	5.51 µM	inactive	
C[C@H](NC(=O)[C@@H](Cc1c[nH]c2ccccc12)NC(=O)[C@@H](N)Cc1cnc[nH]1)C(=O)NN(Cc1c(F)cc(F)cc1F)C(=O)N[C@H](Cc1ccccc1)C(=O)N[C@@H](CCCCN)C(N)=O	inactive	inactive				
C[C@H](NC(=O)[C@@H](Cc1c[nH]c2ccccc12)NC(=O)[C@@H](N)Cc1cnc[nH]1)C(=O)NN(Cc1c[nH]nn1)C(=O)N[C@H](Cc1ccccc1)C(=O)N[C@@H](CCCCN)C(N)=O	inactive	inactive				
C[C@H](NC(=O)[C@@H](Cc1c[nH]c2ccccc12)NC(=O)[C@@H](N)Cc1cnc[nH]1)C(=O)NN(Cc1ccccc1)C(=O)N[C@H](Cc1ccccc1)C(=O)N[C@@H](CCCCN)C(N)=O (H-H[dW]A[azaPhe][dF]K-NH2)	inactive	inactive	2.8	10.1 µM	inactive	
C[C@H](NC(=O)[C@@H](Cc1c[nH]c2ccccc12)NC(=O)[C@@H](N)Cc1cnc[nH]1)C(=O)NN(Cc1ccc([N+](=O)[O-])cc1)C(=O)N[C@H](Cc1ccccc1)C(=O)N[C@@H](CCCCN)C(N)=O	inactive	inactive				
COc1cc(Cl)cc(Cl)c1CN(NC(=O)[C@H](C)NC(=O)[C@@H](Cc1c[nH]c2ccccc12)NC(=O)[C@@H](N)Cc1cnc[nH]1)C(=O)N[C@H](Cc1ccccc1)C(=O)N[C@@H](CCCCN)C(N)=O	inactive	inactive				
C[C@H](NC(=O)[C@@H](Cc1c[nH]c2ccccc12)NC(=O)[C@@H](N)Cc1cnc[nH]1)C(=O)NN(Cc1ccc(C(F)(F)F)cc1)C(=O)N[C@H](Cc1ccccc1)C(=O)N[C@@H](CCCCN)C(N)=O	inactive	inactive				

Further lines, with some results ahead:

inhibition [1]	inhibition [2]	fold change (FC) [3]	IC50 (Platelet glycoprotein 4)	Structure (SMILES)	Activity (Mus musculus)	Activity [4]
Active	Active			C[C@H](N)C(=O)N[C@H](Cc1c[nH]c2ccccc12)C(=O)N[C@@H](C)C(=O)NN(Cc1ccc([N+](=O)[O-])cc1)C(=O)N[C@H](Cc1ccccc1)C(=O)N[C@@H](CCCCN)C(N)=O		
Active	Active			COc1ccc(CN(NC(=O)[C@H](C)NC(=O)[C@@H](Cc2c[nH]c3ccccc23)NC(=O)[C@H](C)N)C(=O)N[C@H](Cc2ccccc2)C(=O)N[C@@H](CCCCN)C(N)=O)cc1		
		3.1	9.19 µM	C[C@H](N)C(=O)N[C@H](Cc1c[nH]c2ccccc12)C(=O)N[C@@H](C)C(=O)NN(Cc1ccc(O)cc1)C(=O)N[C@H](Cc1ccccc1)C(=O)N[C@@H](CCCCN)C(N)=O (H-A[dW]A[azaTyr][dF]K-NH2)	inactive	
Active	Active	7.8	3.6 µM	C[C@H](NC(=O)[C@@H](Cc1c[nH]c2ccccc12)NC(=O)[C@@H](N)Cc1cnc[nH]1)C(=O)NN(Cc1ccc(Br)cc1)C(=O)N[C@H](Cc1ccccc1)C(=O)N[C@@H](CCCCN)C(N)=O	Active	
Active	Active	3.7	7.51 µM	COc1ccc(CN(NC(=O)[C@H](C)NC(=O)[C@@H](Cc2c[nH]c3ccccc23)NC(=O)[C@@H](N)Cc2cnc[nH]2)C(=O)N[C@H](Cc2ccccc2)C(=O)N[C@@H](CCCCN)C(N)=O)cc1	Active	
		5.7	4.94 µM	C[C@H](N)C(=O)N[C@H](Cc1c[nH]c2ccccc12)C(=O)N[C@@H](C)C(=O)NN(Cc1ccc(Cl)cc1)C(=O)N[C@H](Cc1ccccc1)C(=O)N[C@@H](CCCCN)C(N)=O	Active	
inactive	inactive			C[C@H](NC(=O)[C@@H](Cc1c[nH]c2ccccc12)NC(=O)[C@@H](N)Cc1cnc[nH]1)C(=O)NN(Cc1ccc(I)cc1)C(=O)N[C@H](Cc1ccccc1)C(=O)N[C@@H](CCCCN)C(N)=O		
inactive	inactive	14.8	1.9 µM	C[C@H](NC(=O)[C@@H](Cc1c[nH]c2ccccc12)NC(=O)[C@@H](N)Cc1cnc[nH]1)C(=O)NN(Cc1ccc(O)cc1)C(=O)N[C@H](Cc1ccccc1)C(=O)N[C@@H](CCCCN)C(N)=O (H-H[dW]A[azaTyr][dF]K-NH2)	Active	
inactive	inactive			C[C@H](N)C(=O)N[C@H](Cc1c[nH]c2ccccc12)C(=O)N[C@@H](C)C(=O)NN(Cc1ccc(I)cc1)C(=O)N[C@H](Cc1ccccc1)C(=O)N[C@@H](CCCCN)C(N)=O		
Active	Active	4.6	6.06 µM	C[C@H](NC(=O)[C@@H](Cc1c[nH]c2ccccc12)NC(=O)[C@@H](N)Cc1cnc[nH]1)C(=O)NN(Cc1ccc(F)cc1)C(=O)N[C@H](Cc1ccccc1)C(=O)N[C@@H](CCCCN)C(N)=O	Active	
Active	Active	3.4	8.36 µM	C[C@H](NC(=O)[C@@H](Cc1c[nH]c2ccccc12)NC(=O)[C@@H](N)Cc1cnc[nH]1)C(=O)NN(Cc1ccc(Cl)cc1)C(=O)N[C@H](Cc1ccccc1)C(=O)N[C@@H](CCCCN)C(N)=O		Toxic
Active	Active	1.5	19 µM	C[C@H](N)C(=O)N[C@H](Cc1c[nH]c2ccccc12)C(=O)N[C@@H](C)C(=O)NN(Cc1ccccc1)C(=O)N[C@H](Cc1ccccc1)C(=O)N[C@@H](CCCCN)C(N)=O (H-A[dW]A[azaPhe][dF]K-NH2)	inactive	
inactive	inactive			C[C@H](N)C(=O)N[C@H](Cc1c[nH]c2ccccc12)C(=O)N[C@@H](C)C(=O)NN(Cc1ccc(C(F)(F)F)cc1)C(=O)N[C@H](Cc1ccccc1)C(=O)N[C@@H](CCCCN)C(N)=O		
		2.2	12.5 µM	C[C@H](N)C(=O)N[C@H](Cc1c[nH]c2ccccc12)C(=O)N[C@@H](C)C(=O)NN(Cc1ccc(Br)cc1)C(=O)N[C@H](Cc1ccccc1)C(=O)N[C@@H](CCCCN)C(N)=O	inactive	
